Test results: publication PMC3404088, “Development of a Small D-Enantiomeric Alzheimer’s Amyloid-β Binding Peptide Ligand for Future In Vivo Imaging Applications” (PLoS ONE, 2012)
“Also recorded” adds a separate entry of the source. Square brackets hold non-standard residues; d marks the D form. Peptide text beside a SMILES is read from it. * marks the point of attachment. 5FAM = O=C1OC2(c3ccc(O)cc3Oc3cc(O)ccc32)c2ccc(C(=O)*)cc21

Tests used:
[1] = biological target: T1, Aβ plaques in brain sections of transgenic APP (V717I) x PS1 (A246E) mice (Homo sapiens, UniProt P05067); test: Ex vivo staining of mouse brain slices by FITC labeled compounds; conditions: for staining / recognition of Aβ plaques: 0.01 mg/ml ϕ-labeled compound, 2 h, 10 µm cryostat sections; for staining / recognition of Aβ plaques / staining pattern / background signal: fluorescence microscopy; for overlay with 6E10 anti-Aβ staining: co-staining with 6E10 (2 µg/ml) and DAPI, triple overlay; for background signal: 0.01 mg/ml
T1 construct: triple image overlay of respective stains reveal that the ϕ-compounds identify plaques; from tissue; host or cells: brain cryosections of APP (V717I) x PS1 (A246E) transgenic mice
Method: In vitro tissue section staining was performed according to previously described protocols with slight modifications. Mouse brains were obtained from male transgenic (tg) APP (London mutation V717l) x PS1 (A246E) mice aged 13–21 months and from female wild type (wt) mice aged 9–10 months. The mice were anesthetized and transcardially perfused with saline. The brains were removed and snap frozen. 10 µm thick sagittal cryostat sections through the whole mouse brain were produced and mounted onto glass slides. ϕ-labeled compounds were applied to investigate binding. Thus, the slides were thawed, washed in PBS and fixed in 4% paraformaldehyde (20 min at RT) just before incubation with ϕ-labeled compounds. One series of sections was treated only with fluorescent compounds (0.01 mg/ml, incubation time 2 h) while another series of sections were incubated with anti-Aβ antibody 6E10 at 1∶500 dilution (SIG-39320, Covance; final antibody concentration was 2 µg/ml) in addition to ϕ-labeled compounds (0.01 mg/ml). The slices were washed in PBS. The sections incubated with ϕ-labeled compound and 6E10 antibody were further incubated for 2 h at RT with Goat-anti-Mouse IgG1– AlexaFluor 555 (A21127, Invitrogen, 1∶1000 dilution) and washed with PBS. Finally, all sections were counterstained with 4’–6-Diamidino-2-phenylindole (DAPI, 32670, Sigma, incubation 5 min at RT) for the visualization of cell nuclei. The slides were mounted using Prolong Gold Antifade mounting medium (P36930, Invitrogen) and coverslipped.
The tissues were analyzed using a fluorescent Zeiss Axioscope 2 Plus microscope using the AxioVision 4 image analysis software.
A further series of slices was stained using a primary anti-fluorescein isothiocyanate antibody combined with alkaline phosphatase reaction for visualization of ϕ-labeled peptides. Briefly, the sections were treated with blocking solution (10% normal goat serum (NGS), 0.25% Triton X-100 in PBS for 1 h at RT) and incubated with primary antibody (rabbit-anti-FITC; Invitrogen) at a dilution of 1∶500. The sections were then washed and incubated for 2 h at RT with the secondary antibody goat-anti-rabbit-alkaline phosphatase (Sigma) at a dilution of 1∶100. After washing, the slides were incubated with BCIP/NBT substrate (Sigma) for 3 min, washed, dehydrated and mounted using Eukitt mounting medium.

Aβ1–42 monomers = biological target: T2, Aβ1–42 monomers (Homo sapiens, UniProt P05067); test: ELISA, compound binding to Aβ1–42 peptide film (predominantly monomers); conditions: 10 µg/ml compound; optical density after pNPP incubation; value of one single experiment only
T2 construct: Aβ1–42 peptide film was prepared from lyophilized powder (Bachem); purchased Bachem
Method: (§1) Aβ1–42 peptide film was prepared from lyophilized powder (Bachem). The powder was reconstituted in HFIP to a final concentration of 1 mM, sonicated for 15 min at room temperature (RT), agitated overnight (ON), and aliquoted into non-siliconized microcentrifuge tubes (12 µl corresponding to 55 µg). The HFIP was evaporated under a stream of argon. The resulting peptide film was vacuum dried for 10 min and stored at -80°C. For direct use as peptide film, an aliquot of Aβ1–42 peptide film was reconstituted with 0.54% dimethylsulphoxide (DMSO) in phosphate buffered saline (PBS) to obtain a final concentration of 10 µg/ml and then used for the ELISA as described below. To prepare fibrils, 55 µg aliquot of peptide film was dissolved in 55 µl of 50 mM Tris-HCl, pH 7.4 and incubated at 37°C for five days. Next, the sample was centrifuged (10’000 rpm for 5 min) and the pellet was diluted in 50 mM Tris-HCl, pH 7.4.
(§2) Aβ1–42 peptide preparations were diluted in 0.05 M bicarbonate-carbonate buffer pH 9.6, to the final concentration of 10 µg/ml and coated onto ELISA plates (MaxiSorp, Nunc). After blocking (PBS; 0.05% Tween; 1% BSA), plates were incubated with 2- or 3-fold dilutions of D-compounds (starting concentration: 10 µg/ml) and incubated for 2 h at 37°C. Plates were then washed and incubated for 2 h at 37°C with the detection antibody Rabbit-a-fluorescein isothiocyanate-AP (Sigma; 1∶10’000 dilution) followed by the incubation for 2.5 h at room temperature (RT) with 1 mg/ml of phosphatase substrate (pNPP, Sigma). The absorbance signal was read at 405 nm wavelength using a Tecan plate reader (Tecan Group Lt, Männedorf, Switzerland).
(§3) ELISA plates (MaxiSorp, Nunc) were coated with anti-Aβ antibody 6E10 (Covance) at a concentration of 5 µg/ml. Either monomeric Aβ1–42 peptide film (mainly monomeric) or Aβ1–42 fibrils, which were prepared as described above, were diluted in PBS to the final concentration 10 µg/ml and mixed with 10-fold dilutions of D-peptide compounds in Eppendorf tubes (starting concentration of D-peptide compounds: 10 µg/ml). The tubes were incubated for 2 h at 37°C. Next, samples were distributed onto the ELISA plate and kept for 2 h at 37°C. Plates were washed and incubated for 2 h at 37°C with the detection antibody Rabbit-a-fluorescein isothiocyanate-AP (Sigma; 1∶10′000 dilution) following the incubation overnight (ON) at RT with 1 mg/ml of phosphatase substrate (pNPP, Sigma). The absorbance signal was read at 405 nm wavelength using the Tecan plate reader (Tecan Group Ltd, Männedorf, Switzerland).
(§4) To verify the SPR results, ELISA was employed to assay the interaction of the ACI-80 derivatives ACI-80-Kϕ, ACI-81-Kϕ, ACI-82-Kϕ, ACI-83-Kϕ, ACI-84-Kϕ, ACI-85-Kϕ, ACI-86-Kϕ, ACI-87-Kϕ, [^19F]-ACI-87-Kϕ, ACI-88-Kϕ, [^19F]-ACI-88-Kϕ, ACI-89-Kϕ, [^19F]-ACI-89-Kϕ) with Aβ1–42 fibrils and Aβ peptide film in solution containing mostly monomers and smaller oligomers (Table 4). To avoid any bias by possible conformational influences the ELISA has been carried out in two versions, once with immobilized antibody and once with immobilized Aβ1–42 as described in the methods section. Both assays yielded similar results and confirmed each other. […] Panels A and B in Figure 2 show the results for binding to Aβ1–42 fibrils and panels C and D in Figure 2 show the results for binding to freshly prepared Aβ1–42 peptide film, which contains mostly monomeric Aβ. In Table 4, the performance of the peptides is expressed relative to that of ACI-80-Kϕ.

Aβ1–42 fibrils = biological target: T3, Aβ1–42 fibrils (Homo sapiens, UniProt P05067); test: ELISA, compound binding to Aβ1–42 fibrils; conditions: 10 µg/ml compound; optical density after pNPP incubation; value of one single experiment only
T3 construct: Aβ1–42 was dissolved in hexafluoroisopropanol (HFIP)
Method: as §1, §2, §3, §4

Compound	staining / recognition of Aβ plaques [1]	overlay with 6E10 anti-Aβ staining [1]	staining pattern [1]	plaque detection via anti-fluorescein isothiocyanate antibody and alkaline phosphatase ([1]; tg mouse brain slices immersed in ϕ-peptide, BCIP/NBT chromogenic detection, light microscope)	binding value, binding Aβ1–42 monomers (Aβ1–42 monomers)	binding value, binding Aβ1–42 fibrils (Aβ1–42 fibrils)	background signal [1]
CC[C@@H](C)[C@@H](NC(=O)[C@@H](Cc1c[nH]cn1)NC(=O)[C@@H](CCCNC(=N)N)NC(=O)[C@@H](Cc1ccc(O)cc1)NC(=O)[C@@H](Cc1c[nH]cn1)NC(=O)[C@@H](CO)NC(=O)[C@H]1CCCN1)C(=O)N[C@H](CO)C(=O)N1CCC[C@@H]1C(=O)N[C@H](C)C(=O)N[C@H](CCC(N)=O)C(=O)N[C@H](CCCCN)C(=O)N[C@H](CCCCNC(=O)c1ccc2c(c1)C(=O)OC21c2ccc(O)cc2Oc2cc(O)ccc21)C(=O)O [ACI-89-Kϕ] (H-[dP][dS][dH][dY][dR][dH][dI][dS][dP][dA][dQ][dK][dK](5FAM)-OH; N-terminus and C-terminus assumed)	stained plaques most intensively; also recorded: readily recognized amyloid plaques	match 6E10 anti-Aβ staining quite well	more similar to the one of 6E10 which also stains diffuse Aβ plaques	abundant chromogenic deposits	*1.06	*1.49	
CC[C@@H](C)[C@@H](NC(=O)[C@@H](Cc1c[nH]cn1)NC(=O)[C@@H](CCCNC(=N)N)NC(=O)[C@@H](Cc1ccc(O)cc1)NC(=O)[C@@H](Cc1c[nH]cn1)NC(=O)[C@@H](CO)NC(=O)[C@H](N)CCC(N)=O)C(=O)N[C@H](CO)C(=O)N1CCC[C@@H]1C(=O)N[C@H](C)C(=O)N[C@H](CCC(N)=O)C(=O)N[C@H](CCCCN)C(=O)N[C@H](CCCCNC(=O)c1ccc2c(c1)C(=O)OC21c2ccc(O)cc2Oc2cc(O)ccc21)C(=O)O [ACI-87-Kϕ] (H-[dQ][dS][dH][dY][dR][dH][dI][dS][dP][dA][dQ][dK][dK](5FAM)-OH; N-terminus and C-terminus assumed)	readily recognized amyloid plaques	nearly no overlay with 6E10 anti-Aβ was detected			*0.79	*0.93	high background fluorescence
CC[C@@H](C)[C@@H](NC(=O)[C@@H](Cc1c[nH]cn1)NC(=O)[C@@H](CCCNC(=N)N)NC(=O)[C@@H](Cc1ccc(O)cc1)NC(=O)[C@@H](Cc1c[nH]cn1)NC(=O)[C@H](N)CO)C(=O)N[C@H](CO)C(=O)N1CCC[C@@H]1C(=O)N[C@H](C)C(=O)N[C@H](CCC(N)=O)C(=O)N[C@H](CCCCN)C(=O)N[C@H](CCCCNC(=O)c1ccc2c(c1)C(=O)OC21c2ccc(O)cc2Oc2cc(O)ccc21)C(=O)O [ACI-88-Kϕ] (H-[dS][dH][dY][dR][dH][dI][dS][dP][dA][dQ][dK][dK](5FAM)-OH; N-terminus and C-terminus assumed)	stained plaques most intensively; also recorded: readily recognized amyloid plaques	match 6E10 anti-Aβ staining quite well; also recorded: good overlap with 6E10 Aβ staining	stained the core of plaques		*1.29	*1.78	lowest background signal of all peptides
